Measured values published in patent US20230265205A1, “METABOLISM-BASED CHIMERIC ANTIGEN RECEPTORS AND METHODS OF TREATMENT” (Arizona Board of Regents on behalf of Arizona State …, priority 2020, published 2023).

Test system: C57BL/6j bone marrow derived dendritic cells
Test: Seahorse extracellular acidification rate (ECAR) assay in glucose-free media
Type: cell-based
Conditions: PFK15 200 nM, 4 hours
Procedure: F16BP particles rescues glycolysis even in the presence of glycolytic inhibitor PFK15. In order to test if F16BP can indeed functionally accelerate glycolysis in the presence of low glucose environment, extracellular acidification rate (ECAR), which measures changes in extracellular pH due to lactic acid production (a byproduct of glycolysis) was determined using Seahorse assays. In this case, although, C57BL/6j bone marrow derived dendritic cells (DCs, another type of phagocytic cell) were utilized, it is believed that CAR macrophages will behave similarly. Specifically, DCs were treated with PFK15 (200 nM), or F16BP particles (0.1 mg/mL) or PFK15+F16BP particles. After 4 hours of treatment with formulations, changes in pH using ECAR were recorded in glucose-free media. In a step-wise manner cells were added with oligomycin to measure ATP production and proton leak, Carbonyl cyanide-4 (trifluoromethoxy) phenylhydrazone (FCCP—disrupts mitochondrial membrane potential) to measure maximal respiration, rotenone and antimycinA (shuts down mitochondrial respiration) to measure spare capacity.

Q: `O=C(/C=C/c1ccc2ccccc2n1)c1ccncc1` [PFK15] was tested. Which “ECAR values relative to no treatment control” value did it give?
A: even lower than no treatment control
